# Literature values as cited in patent US11512068B2, “Process for the preparation of crystalline ridinilazole using acid addition salts” (Sandoz AG, priority 2017, dated 2022).
# Key:
# Clostridium difficile [1] = test system: Clostridium difficile
# Clostridium difficile [2] = conditions: treatment with ridinilazole
# [3] = phase 1 trial, oral
# clostridia = conditions: phase 1 trial, oral
smiles,measurement,setting,value
"c1cc(-c2nc3ccc(-c4ccc5nc(-c6ccncc6)[nH]c5c4)cc3[nH]2)ccn1 [Ridinilazole, 5,5′bis[2-(4-pyridinyl)-1H-benzimidazole]]",post-antibiotic effect,Clostridium difficile [1],prolonged post-antibiotic effect
same,toxin production,Clostridium difficile [2],decreased toxin production
same,tolerability,[3],well tolerated
same,selectivity for clostridia over other faecal bacteria,clostridia,specifically targets clostridia whilst sparing other faecal bacteria
